Experimental data: patent US20170314074A1, “LPA-ASSOCIATED PROTEIN AND RNA EXPRESSION” (Intermune, Inc., priority 2014, published 2017)

System: normal human lung fibroblasts, human bronchial epithelial cells, and human pulmonary alveolar epithelial cells
Assay: Secreted protein expression after LPA induction, aptamer-based proteomic platform (SomaLogic, 1129 proteins)
Assay type: cell-based
Details: 24 hours
Protocol: Changes in gene expression after 3 hours of LPA induction were profiled on Affymetrix Human Gene ST 2.0 microarrays; differentially expressed genes identified by ANOVA with FDR <0.05 and fold-change >1.2. Process networks associated with differentially expressed genes were defined using MetaCore. Changes in secreted protein expression after 24 hours of LPA induction were profiled on an aptamer-based proteomic platform (1129 proteins); differentially expressed proteins identified by t-test.
Treatment of cells with LPA, isolation supernatant, analysis of secreted protein expression using soma panel was performed as follows: Supernatant was collected from in vitro cultures of normal human lung fibroblasts, human bronchial epithelial cells, and human pulmonary alveolar epithelial cells treated for 24 hours with LPA and/or LPAR1 inhibitor. Each treatment condition was assayed in triplicate. 1129 proteins were profiled using a broad aptamer-based proteomic platform (SomaLogic, Colo., US). Briefly, the technology uses DNA aptamers containing chemically modified nucleotides as highly specific protein binding reagents in a multiplexed assay that transforms the quantity of each targeted protein into a corresponding quantify of the aptamer. Protein quantities are then detected on a microarray platform and recorded as Relative Fluorescence Units (RFU).
In Tables 1-5 The differentially expressed secreted proteins set forth in Tables 1, 2, and 5 and the differentially expressed mRNAs set forth in Table 3 and 4 were identified by visual inspection of individual dot-plots.
For the gene and protein expression analysis primary fibroblasts (NHLF product #CC-2512 from Lonza group LTD) and primary epithelial cells (NHBE Product #CC-2540 from Lonza; HPAEpiC Product #3200 from Sciencell (USA, California)) were cultured as recommended by the manufacturer, except they were cultured on collagen coated plates. As part of the induction protocol cells were starved overnight in low (0.2 or 0.1% serum) or no serum (0%), prior to stimulation with LPA.

lysophosphatidic acid [LPA]
up: effect of LPA, 41 (EPB41) | effect of LPA, ADAM 9 (ADAM9) | effect of LPA, ALCAM (ALCAM) | effect of LPA, ANGL4 (ANGPTL4) | effect of LPA, AREG (AREG) | effect of LPA, ARTS1 (ERAP1) | effect of LPA, ASM3A (SMPDL3A) | effect of LPA, Activin A (INHBA) | effect of LPA, Aminoacylase-1 (ACY1) | effect of LPA, Angiogenin (ANG) | effect of LPA, Angiopoietin-1 (ANGPT1) | effect of LPA, B7-H1 (CD274) | effect of LPA, BASI (BSG) | effect of LPA, BFL1 (BCL2A1) | effect of LPA, BGH3 (TGFBI) | effect of LPA, BGN (BGN) | effect of LPA, BSSP4 (PRSS22) | effect of LPA, Bone proteoglycan II (DCN) | effect of LPA, CAPG (CAPG) | effect of LPA, CATZ (CTSZ) | effect of LPA, CK2-A1:B (CSNK2A1 CSNK2B) | effect of LPA, COMMD7 (COMMD7) | effect of LPA, CRDL1 (CHRDL1) | effect of LPA, CTAP-III (PPBP) | effect of LPA, Caspase-3 (CASP3) | effect of LPA, Cathepsin A (CTSA) | effect of LPA, Cathepsin H (CTSH) | effect of LPA, Cathepsin S (CTSS) | effect of LPA, Cathepsin V (CTSL2) | effect of LPA, Cofilin-1 (CFL1) | effect of LPA, Cyclophilin A (PPIA) | effect of LPA, Cystatin M (CST6) | effect of LPA, DAF (CD55) | effect of LPA, DBNL (DBNL) | effect of LPA, DKK1 (DKK1) | effect of LPA, DKK3 (DKK3) | effect of LPA, DPP2 (DPP7) | effect of LPA, DcR3 (TNFRSF6B) | effect of LPA, Discoidin domain receptor 2 (DDR2) | effect of LPA, Dkk-4 (DKK4) | effect of LPA, EMR2 (EMR2) | effect of LPA, ENA-78 (CXCL5) | effect of LPA, EPHA3 (EPHA3) | effect of LPA, EPI (EREG) | effect of LPA, Elafin (PI3) | effect of LPA, Endocan (ESM1) | effect of LPA, Endothelin-converting enzyme 1 (ECE1) | effect of LPA, Eotaxin (CCL11) | effect of LPA, EphB4 (EPHB4) | effect of LPA, Ephrin-A5 (EFNA5) | effect of LPA, Ephrin-B3 (EFNB3) | effect of LPA, Epithelial cell kinase (EPHA2) | effect of LPA, FGF7 (FGF7) | effect of LPA, FGF-20 (FGF20) | effect of LPA, FST (FST) | effect of LPA, FSTL3 (FSTL3) | effect of LPA, Flt-3 (FLT3) | effect of LPA, G-CSF (CSF3) | effect of LPA, GAPDH liver (GAPDH) | effect of LPA, GCP-2 (CXCL6) | effect of LPA, GREM1 (GREM1) | effect of LPA, GRN (GRN) | effect of LPA, GV (PLA2G5) | effect of LPA, Galectin-3 (LGALS3) | effect of LPA, Gro-a (CXCL1) | effect of LPA, Gro-b/g (CXCL3 CXCL2) | effect of LPA, HGF (HGF) | effect of LPA, IDE (IDE) | effect of LPA, IGF-I sR (IGF1R) | effect of LPA, IGF-II receptor (IGF2R) | effect of LPA, IGFBP-3 (IGFBP3) | effect of LPA, IGFBP-7 (IGFBP7) | effect of LPA, IL-1 R4 (IL1RL1) | effect of LPA, IL-6 (IL6) | effect of LPA, IL-6 sRa (IL6R) | effect of LPA, IL-8 (IL8) | effect of LPA, IL-11 (IL11) | effect of LPA, IL-12 RB2 (IL12RB2) | effect of LPA, IL-17D (IL17D) | effect of LPA, IP-10 (CXCL10) | effect of LPA, JAG1 (JAG1) | effect of LPA, JAG2 (JAG2) | effect of LPA, KPCI (PRKCI) | effect of LPA, LG3BP (LGALS3BP) | effect of LPA, LGMN (LGMN) | effect of LPA, LRIG3 (LRIG3) | effect of LPA, Layilin (LAYN) | effect of LPA, MCP-1 (CCL2) | effect of LPA, MCP-3 (CCL7) | effect of LPA, MICA (MICA) | effect of LPA, MICB (MICB) | effect of LPA, MIP-3a (CCL20) | effect of LPA, MMP-1 (MMP1) | effect of LPA, MMP-3 (MMP3) | effect of LPA, MMP-9 (MMP9) | effect of LPA, MMP-10 (MMP10) | effect of LPA, MMP-12 (MMP12) | effect of LPA, MMP-13 (MMP13) | effect of LPA, MRC2 (MRC2) | effect of LPA, Met (MET) | effect of LPA, Midkine (MDK) | effect of LPA, NAGK (NAGK) | effect of LPA, NAP-2 (PPBP) | effect of LPA, NCAM-L1 (L1CAM) | effect of LPA, NET4 (NTN4) | effect of LPA, NID2 (NID2) | effect of LPA, NKp46 (NCR1) | effect of LPA, NRP1 (NRP1) | effect of LPA, NRX3B (NRXN3) | effect of LPA, NXPH1 (NXPH1) | effect of LPA, Neurotrophin-3 (NTF3) | effect of LPA, Nogo Receptor (RTN4R) | effect of LPA, NovH (NOV) | effect of LPA, OMD (OMD) | effect of LPA, ON (SPARC) | effect of LPA, PAI-1 (SERPINE1) | effect of LPA, PARK7 (PARK7) | effect of LPA, PCSK7 (PCSK7) | effect of LPA, PDGF-AA (PDGFA) | effect of LPA, PDGF-BB (PDGFB) | effect of LPA, PTHrP (PTHLH) | effect of LPA, Protease nexin I (SERPINE2) | effect of LPA, RAC1 (RAC1) | effect of LPA, RANTES (CCL5) | effect of LPA, RAP (LRPAP1) | effect of LPA, RGMB (RGMB) | effect of LPA, ROBO2 (ROBO2) | effect of LPA, SARP-2 (SFRP1) | effect of LPA, SCGF-alpha (CLEC11A) | effect of LPA, SDF-1 (CXCL12) | effect of LPA, SLIK5 (SLITRK5) | effect of LPA, ST4S6 (CHST15) | effect of LPA, Semaphorin 3A (SEMA3A) | effect of LPA, Sphingosine kinase 1 (SPHK1) | effect of LPA, TAJ (TNFRSF19) | effect of LPA, TFPI (TFPI) | effect of LPA, TGF-b R III (TGFBR3) | effect of LPA, TIG2 (RARRES2) | effect of LPA, TIMP-3 (TIMP3) | effect of LPA, TNF sR-I (TNFRSF1A) | effect of LPA, TNF sR-II (TNFRSF1B) | effect of LPA, TNFSF15 (TNFSF15) | effect of LPA, TSG-6 (TNFAIP6) | effect of LPA, TSLP (TSLP) | effect of LPA, TSP2 (THBS2) | effect of LPA, TXD12 (TXNDC12) | effect of LPA, Thrombospondin-1 (THBS1) | effect of LPA, UNC5H3 (UNC5C) | effect of LPA, URB (CCDC80) | effect of LPA, VEGF121 (VEGFA) | effect of LPA, VEGF (VEGFA) | effect of LPA, VEGF-C (VEGFC) | effect of LPA, annexin I (ANXA1) | effect of LPA, discoidin domain receptor 1 (DDR1) | effect of LPA, suPAR (PLAUR) | effect of LPA, uPA (PLAU)
down: effect of LPA, ATS1 (ADAMTS1) | effect of LPA, Angiopoietin-2 (ANGPT2) | effect of LPA, Angiostatin (PLG) | effect of LPA, Apo E2 (APOE) | effect of LPA, Apo E3 (APOE) | effect of LPA, Coagulation Factor Xa (F10) | effect of LPA, DERM (DPT) | effect of LPA, FCAR (FCAR) | effect of LPA, FGF-18 (FGF18) | effect of LPA, GDF-9 (GDF9) | effect of LPA, IGFBP-2 (IGFBP2) | effect of LPA, Spondin-1 (SPON1) | effect of LPA, TWEAK (TNFSF12) | effect of LPA, TrATPase (ACP5) | effect of LPA, WKFN1 (GPRASP2) | effect of LPA, eIF-5A-1 (EIF5A) | effect of LPA, sFRP-3 (FRZB)
